In patent US9468604B2, “Pharmaceutical compositions of dispersions of drug and neutral polymers” (Bend Research, Inc., priority 2001, dated 2016):
Each block holds one compound with its values, some of them ahead of it.

Tests used:
Type in all cases: physicochemical
[1] = In vitro dissolution test of Drug 5 compositions in MFD solution; parameters: AUC90: concentration or dose not given beside the values; details: for AUC / Drug 5 Concentration: Table 27; for AUC / AUC90 / Cmax90: Drug 5, MFD solution; for Drug 5 Concentration: MFD solution; for AUC90 / Cmax90: 0 to 90 min
Description: (§1) For Control C2, the crystalline form of the drug alone was used without further processing. […] The tubes were placed in a 37° C. temperature-controlled bath, and 1.8 mL phosphate buffered saline (PBS) at pH 6.5 and 290 mOsm/kg was added to each. The samples were quickly mixed using a vortex mixer for about 60 seconds. The samples were centrifuged at 13,000 G at 37° C. for 1 minute. The resulting supernatant solutions were then sampled and diluted 1:6 (by volume) with methanol and then analyzed by high-performance liquid chromatography (HPLC). The contents of the tubes were mixed on the vortex mixer and allowed to stand undisturbed at 37° C. until the next sample was taken. Samples were collected at 4, 10, 20, 40, 90, and 1200 minutes.
In vitro dissolution tests were performed for Examples 28-29, using the procedure described in Example 4, with the following exceptions: 9 mg each of the dispersions of Examples 28-29 were added to separate respective centrifuge tubes. 1.8 mL of MFD solution was then added to each tube. For comparison, Control C12 was prepared consisting of 0.36 mg of crystalline Drug 5 added to 1.8 mL of MFD solution for a total theoretical concentration of 200 μg/mL if all of the drug dissolved. Drug 5 concentration in the samples was determined using HPLC. A Waters Symmetry C18 HPLC column was used with a mobile phase of 50 vol. % (0.3 vol. % glacial acetic acid, 0.2 vol. % TEA in water) and 50 vol. % acetonitrile. UV detection was measured at 260 nm.
(§2) In vitro dissolution tests were performed for Examples 35-38, using the procedures described in Example 4, with the following exceptions: 14.4 mg each of Example 35 and 36 were added to separate respective test tubes to which 1.8 mL of PBS solution was added, so that the total theoretical Drug 4 concentration was approximately 200 μg/mL if all of Drug 4 were to dissolve completely; 3.6 mg each of Examples 37 and 38 were added in separate respective test tubes to 1.8 mL of MFD solution, to provide a total theoretical Drug 5 concentration of approximately 20 μg/mL if all of Drug 5 were to dissolve completely. Drug 4 concentration in the samples was determined as in Example 33. Drug 5 concentration in the samples was determined as in Example 34.

[2] = In vitro dissolution test of Drug 2 compositions in MFD solution; parameters: AUC / AUC90: concentration or dose not given beside the values; details: for Drug 2: MFD solution, 37° C.
Description: as §1
This example measures' the concentration-enhancing properties of the PVP dispersion of Example 14. Dissolution tests were performed, as described in Example 4 with the following exceptions: the PBS solution contained 7.3 mM sodium taurocholic acid and 1.4 mM 1-palmitoyl-2-oleyl-sn-glycero-3-phosphocholine (model fasted duodenal (MFD) solution). 1.8 mg of dispersion was added to 1.8 mL of test media. For Control C6, 0.18 mg of the crystalline form of the Drug 2 alone was used without further processing and added to 1.8 mL of MFD solution.

[3] = In vitro dissolution test of Drug 3 compositions in MFD solution; parameters: AUC / AUC90: concentration or dose not given beside the values; details: for Drug 3: MFD solution, 37° C.
Description: as §1
Dissolution tests were performed, as described in Example 4 with the following exceptions: samples were tested in MFD Solution, and 1.8 mg of dispersion was added to 1.8 mLs of MFD Solution. Control C9 was simply 0.18 mg of the crystalline Drug 3 alone add to 1.8 mL of MFD solution.

[4] = In vitro dissolution test of Drug 4 compositions in PBS; details: for AUC / [Drug 4]: Table 25; for AUC / AUC90 / Cmax90: Drug 4, PBS; for [Drug 4]: PBS; for AUC90 / Cmax90: 0 to 90 min
Description: as §1
In vitro dissolution tests were performed for Examples 25-27 using the procedure described in Example 4, with the following exceptions: 14.4 mg each of the dispersions of Examples 25-27 were added to separate, respective centrifuge tubes. 1.8 mL PBS was added to each tube. For comparison, Control C11 was prepared consisting of 3.6 mg of crystalline Drug 4 added to 1.8 mL PBS. Drug 4 concentration in the samples was determined using HPLC. A Zorbax SB C18 HPLC column was used with a mobile phase of 35 vol. % water and 65 vol. % methanol. UV detection was measured at 297 nm.
as §2

[5] = Drug 2, MFD solution, 0 to 90 min
[6] = Drug 3, MFD solution, 0 to 90 min

- AUC ([1]; time 0 min): 0 µg·min/mL
- AUC ([1]; time 4 min): 0 µg·min/mL
- AUC ([1]; time 10 min): 100 µg·min/mL
- AUC ([1]; time 20 min): 300 µg·min/mL
- AUC ([1]; time 40 min): 800 µg·min/mL
- AUC ([1]; time 90 min): 2,200 min*μg/mL
- AUC ([1]; time 1200 min): 43,300 min*μg/mL
- Drug 5 Concentration ([1]; time 0 min): 0 µg/mL
- Drug 5 Concentration ([1]; time 4 min): 9 µg/mL
- Drug 5 Concentration ([1]; time 10 min): 15 µg/mL
- Drug 5 Concentration ([1]; time 20 min): 21 µg/mL
- Drug 5 Concentration ([1]; time 40 min): 27 µg/mL
- Drug 5 Concentration ([1]; time 90 min): 32 µg/mL
- Drug 5 Concentration ([1]; time 1200 min): 42 µg/mL
- AUC90 ([1]; Table 28): 2,200 min*μg/mL
- Cmax90 ([1]; Table 28): 32 µg/mL
- Cmax90 ([1]; Table 32): 32 µg/mL
- AUC90 ([1]; Table 32, in min·µg/mL): 2,200
SMILES: NC(=O)N(O)C1C=C(c2cccc(Oc3ccc(F)cc3)c2)CC1 (single isomer, unassigned; (+)) [Example C12, (+)-N-{3-[3-(4-fluorophenoxy)phenyl]-2-cyclopenten-1-yl}-N-hydroxyurea]

- AUC90 [2, 5]: 400 µg·min/mL
- Cmax90 [2, 5]: 7 µg/mL
- AUC ([2]; Drug 2, MFD solution, time 0 min): 0 min*µg/mL
- AUC ([2]; Drug 2, MFD solution, time 4 min): 0 min*µg/mL
- AUC ([2]; Drug 2, MFD solution, time 10 min): 0 min*µg/mL
- AUC ([2]; Drug 2, MFD solution, time 20 min): 100 min*µg/mL
- AUC ([2]; Drug 2, MFD solution, time 40 min): 100 min*µg/mL
- AUC ([2]; Drug 2, MFD solution, time 90 min): 400 min*µg/mL
- Drug 2 ([2]; time 0 min): 0 µg/mL
- Drug 2 ([2]; time 4 min): 2 µg/mL
- Drug 2 ([2]; time 10 min): 4 µg/mL
- Drug 2 ([2]; time 20 min): 4 µg/mL
- Drug 2 ([2]; time 40 min): 4 µg/mL
- Drug 2 ([2]; time 90 min): 7 µg/mL
SMILES: O=C(NC(Cc1ccccc1)C(O)CC(C(=O)NO)C1CCC(F)(F)CC1)c1cnc2ccccc2n1 (stereo not shown) [Example C6, quinoxaline-2-carboxylic acid [1-benzyl-4-(4,4-difluoro-cyclohexyl)-2-hydroxy-4-hydroxycarbamoyl-butyl]-amide]

- AUC90 [3, 6]: 900 µg·min/mL
- Cmax90 [3, 6]: 13 µg/mL
- AUC ([3]; Drug 3, MFD solution, time 0 min): 0 min*µg/mL
- AUC ([3]; Drug 3, MFD solution, time 4 min): 0 min*µg/mL
- AUC ([3]; Drug 3, MFD solution, time 10 min): 0 min*µg/mL
- AUC ([3]; Drug 3, MFD solution, time 20 min): 100 min*µg/mL
- AUC ([3]; Drug 3, MFD solution, time 40 min): 300 min*µg/mL
- AUC ([3]; Drug 3, MFD solution, time 90 min): 900 min*µg/mL
- Drug 3 ([3]; time 0 min): 0 µg/mL
- Drug 3 ([3]; time 4 min): 4 µg/mL
- Drug 3 ([3]; time 10 min): 6 µg/mL
- Drug 3 ([3]; time 20 min): 8 µg/mL
- Drug 3 ([3]; time 40 min): 11 µg/mL
- Drug 3 ([3]; time 90 min): 13 µg/mL
SMILES: O=C(NC(Cc1ccccc1)C(O)CC(C(=O)NO)C1(O)CCC(F)(F)CC1)c1cnc2ccccc2n1 (stereo not shown) [Example C9, quinoxaline-2-carboxylic acid [1-benzyl-4-(4,4-difluoro-1-hydroxy-cyclohexyl)-2-hydroxy-4-hydroxycarbamoyl-butyl]-amide]

- AUC ([4]; time 0 min): 0 µg·min/mL
- AUC ([4]; time 4 min): 300 µg·min/mL
- AUC ([4]; time 10 min): 1,000 min*μg/mL
- AUC ([4]; time 20 min): 2,200 min*μg/mL
- AUC ([4]; time 40 min): 4,500 min*μg/mL
- AUC ([4]; time 90 min): 10,300 min*μg/mL
- AUC ([4]; time 1200 min): 120,200 min*μg/mL
- [Drug 4] ([4]; time 0 min): 0 µg/mL
- [Drug 4] ([4]; time 4 min): 131 µg/mL
- [Drug 4] ([4]; time 10 min): 114 µg/mL
- [Drug 4] ([4]; time 20 min): 124 µg/mL
- [Drug 4] ([4]; time 40 min): 107 µg/mL
- [Drug 4] ([4]; time 90 min): 126 µg/mL
- [Drug 4] ([4]; time 1200 min): 72 µg/mL
- AUC90 ([4]; Table 26): 10,300 min*μg/mL
- Cmax90 ([4]; Table 26): 131 µg/mL
- Cmax90 ([4]; Table 31): 131 µg/mL
- AUC90 ([4]; Table 31, in min·µg/mL): 10,300
SMILES: O=C(N[C@@H](Cc1ccccc1)[C@@H](O)C(=O)N1C[C@@H](O)[C@@H](O)C1)c1cc2cc(Cl)ccc2[nH]1 [Example C11, 5-chloro-1H-indole-2-carboxylic acid [(1S)-benzyl-3-((3R,4S)-dihydroxypyrrolidin-1-yl)-(2R)-hydroxy-3-oxypropyl]amide]
